Assay results from patent US8450067B2, “Method for obtaining anti-idiotype antibodies” (Omrix Biopharmaceuticals Inc., priority 2002, dated 2013).

Tests used:
[1] = tested on: anti-dsDNA antibody-positive SLE sera; settings: sera which cross react with ssDNA; cited from earlier work
BALB/c neonatal mice = BALB/c neonatal mice immunized later with pCDR1 or the pathogenic auto-Ab; cited from earlier work
mice = settings: cited from earlier work
[2] = tested on: immunoglobulin elution peak from a peptide column bound with peptide 707; test: ELISA of peptide column eluate with biotinylated peptides (707 column); type: binding, human; settings: FIG. 4; biotinylated peptide 1 μg/ml
Method: (§1) To measure the binding efficacy of peptide column eluates (706 and 707) the following ELISA was performed:
(§2) Microtiter plates (Costar, USA) were coated overnight at 2-8° C. with 10 μg/ml NeutrAvidin (Pierce, USA) suspended in 0.1M, pH 8.8, of carbonate-bicarbonate buffer (Sigma USA). The coating solution was removed, washed three times with washing buffer (1×PBS) and 200 μl of blocking solution (freshly prepared 1% I Block, Tropix, USA) per well was added and incubated for 1 hour at 37° C. Coated and blocked plates can be stored at −20° C. for a month before use.
(§3) Tested samples diluted in the blocking solution were mixed in a separate tube with 1 μg/ml (final concentration) of the appropriate biotinylated peptide and the mixture was incubated for 1 hour at 37° C. 100 μl from each reaction tube was then transferred to the blocked microtiter plate and incubated at 37° C. for ½ hour. A 100 μl of 1:5000 Alkaline Phosphatase conjugate goat anti human IgG (Heavy and light chain from Jackson, USA) diluted in the blocking buffer was applied into the microtiter well and incubated for 1 hour. […] The measurement was done photometrically at 405 nm.

[3] = tested on: immunoglobulin eluted from a peptide column bearing the peptide 706; test: ELISA of peptide column eluate with biotinylated peptides (706 column); type: binding, human; settings: FIG. 3; biotinylated peptide 1 μg/ml
Method: as §1, §2, §3

Sequence | share of anti-dsDNA antibody-positive SLE sera that recognize the peptide [1] | auto-Ab production (BALB/c neonatal mice) | effect on disease in experimental SLE mice (mice; experimental SLE mice) | induction of SLE-like disease in mice (mice; responder mice (BALB/c, SJL)) | binding of 707 column eluate to biotinylated peptide [2] | binding of 706 column eluate to biotinylated peptide [3]
RLTSSLRYNP [synthetic peptide mimotope of dsDNA (Sun et al. 2001)] | 88% | – | – | – | – | –
TGYYMQWVKQSPEKSLEWIG [Pep 706] | – | prevent auto-Ab production | ameliorate the disease | induced a mild SLE-like disease | reacted | reacted specifically in a linear fashion
